From PMC11477289, “Low-Basicity 5-HT6 Receptor Ligands from the Group of Cyclic Arylguanidine Derivatives and Their Antiproliferative Activity Evaluation” (International Journal of Molecular Sciences, 2024)
Where two headings read alike, the source gives them in different places.

Assays:
human 5-HT6 [1] = biological target: T1, human 5-HT6 (Homo sapiens, UniProt P50406); assay: Functional evaluation, cAMP (LANCE Ultra) in HEK293 cells; type: cell-based; conditions: for Kb: antagonist mode, cAMP induced by 5-CT 1000 nM
T1 construct: expressed in transfected cells
Experimental: The supernatant was aspirated, and the cell pellet was resuspended in a stimulation buffer (1 × HBSS, 5 mM HEPES, 0.5 mM IBMX, 0.1% BSA).
The functional properties of compounds were evaluated using the LANCE Ultra cAMP detection kit (PerkinElmer). […] To investigate the antagonist activity, dopamine for D2R was added at a concentration of 10 nM, and for cell lines with 5-HT7R, 5-HT1AR, or 5-HT6R, 5-CT concentrations were adjusted, being, respectively, 10, 100, and 1000 nM, according to the receptor subtype.
For the quantification of cAMP levels, cells (5 µL) were incubated with a 5 µL mixture of necessary compounds for 30 min at room temperature in a 384-well white opaque microtiter plate (PerkinElmer). After incubation, the reaction was stopped, and cells were lysed by the addition of a 10 µL working solution (5 µL Eu-cAMP and 5 µL ULight-anti-cAMP). The assay plate was incubated for 1 h at room temperature. The time-resolved fluorescence resonance energy transfer (TR-FRET) signal was detected by an Infinite M1000 Pro (Tecan, Männedorf, Switzerland) using instrument settings from the LANCE Ultra cAMP detection kit manual.

U-251 glioblastoma cells = assay: Antiproliferative activity (MTS), U-251; conditions: read-out: IC50 Values U-251
HEK293 = assay: Cytotoxic activity on HEK293; type: cell-based; conditions: Homo sapiens
Description: Table 6 Extended receptor affinity study, with functional tests and cytotoxic activity of selected compounds on HEK293. | column: HEK293 / IC50 [µM]

5-HT1A receptor = biological target: T2, 5-HT1A receptor (Homo sapiens, UniProt P08908); assay: [3H]-8-OHDPAT radioligand binding assay, 5-HT1A
T2 sequence (P08908 1-422): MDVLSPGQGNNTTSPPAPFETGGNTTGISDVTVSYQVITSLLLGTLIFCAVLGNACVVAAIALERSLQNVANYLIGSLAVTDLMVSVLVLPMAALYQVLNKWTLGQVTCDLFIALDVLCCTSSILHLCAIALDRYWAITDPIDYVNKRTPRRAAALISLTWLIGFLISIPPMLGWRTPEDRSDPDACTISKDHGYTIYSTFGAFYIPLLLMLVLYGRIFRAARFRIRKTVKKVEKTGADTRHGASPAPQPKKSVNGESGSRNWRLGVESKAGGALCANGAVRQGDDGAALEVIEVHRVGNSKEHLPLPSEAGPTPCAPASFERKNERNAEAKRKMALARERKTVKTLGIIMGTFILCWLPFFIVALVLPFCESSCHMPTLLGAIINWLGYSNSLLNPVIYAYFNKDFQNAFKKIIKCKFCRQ

[2] = system: AsPC-1 pancreas adenocarcinoma cell line; assay: Antiproliferative activity (MTS), AsPC-1; conditions: read-out: IC50 Values AsPC-1
[3] = system: LN-229 glioblastoma cell line; assay: Antiproliferative activity (MTS), LN-229; conditions: read-out: IC50 Values LN-229
[4] = system: 1321N1 astrocytoma cell line; assay: Antiproliferative activity (MTS), 1321N1; conditions: read-out: IC50 Values 1321N1
U87MG glioblastoma cells = assay: Antiproliferative activity (MTS), U87MG; conditions: 72 h, read-out: IC50 Values U87MG
human 5-HT6 [5] = biological target: T1, human 5-HT6; assay: [3H]-LSD radioligand binding assay, 5-HT6R; conditions: HEK293 expressing human 5-HT6R, read-out: 5-HT6 Ki
Experimental: Next, the ligands’ affinity for the 5-HT6 receptors was evaluated in the [^3H]-LSD radioligand binding assay. Experiments were performed in a stable HEK293 cell line expressing the human 5-HT6R.
The pellets were stored at −80 °C.

[6] = system: MCF7 breast carcinoma cell line; assay: Antiproliferative activity (MTS), MCF7; conditions: read-out: IC50 Values MCF7
5-HT7b receptor = 5-HT7b receptor (Homo sapiens, UniProt P34969); assay: [3H]-5-CT radioligand binding assay, 5-HT7
[7] = system: normal human astrocytes (NHAs); assay: Activity on normal astrocytes (MTS), NHA; conditions: for IC50: Homo sapiens, Astrocyte, 72 h, read-out: IC50 Values NHA
[8] = Affinity to phospholipids, IAM column (CHI IAM); type: physicochemical; conditions: IAM.PC.DD2 column, pH 7.4
Description: (§1) We began with an assay for lipophilicity, affinity for phospholipids (for 40 compounds), and drug binding to human serum albumin (HSA) (for 20 compounds), using chromatographic protocols developed by Valko [46] and implemented in our laboratory [47]. […] These methods allowed the determination of chromatographic hydrophobicity indices (CHIs), binding to HSA (%HSA), and phospholipids (CHIIAM) using a single-gradient elution experiment and comparison to reference substances.
(§2) The mobile phase flow rate was 1.5 mL/min, and the column was maintained at 30 °C. • Chiralpak® HSA (50 mm × 4 mm; 5 µm with safety guard column; Daicel Chiral Technologies, West Chester, PA, USA), mobile phase A: 50 mM ammonium acetate, mobile phase B: HPLC-grade isopropanol (VWR International, Leuven, Belgium). For the first 15 min, the linear gradient from 0 to 20% isopropanol was applied and then held at 20% isopropanol for 12 min. In the last 5 min of the sequence, the mobile phase mixture received a pure ammonium acetate solution. The column temperature was held at 30 °C, whereas the flow rate was 0.9 mL/min.
(§3) The reference substances for the calibration of HSA, C18, and IAM columns were purchased, respectively: acetanilide, butyrophenone, diclofenac, and octanonophenone (Alfa Aesar, Haverhill, MA, USA); acetophenone, benzimidazole, colchicine, indole, indometacin, paracetamol, and theophylline (Sigma-Aldrich, Steinheim, Germany); nicardipine and nizatidine (Cayman Chemical, Ann Arbor, MI, USA); carbamazepine, heptanophenone, hexanophenone, propiophenone, and valerophenone (Acros Organic, Pittsburg, PA, USA). Before chromatographic experiments, solutes were dissolved in dimethyl sulfoxide (Avantor Performance Materials Poland S.A., Gliwice, Poland) to obtain a 200 µg/mL concentration. The detection was performed in the UV region at the wavelength from 190 nm to 300 nm. The injected volume was 5 μL, and each compound was analyzed in triplicate.

[9] = Chromatographic hydrophobicity index on C18 column (lipophilicity); type: physicochemical
Description: as §1, §2, §3

D2L receptor = D2L receptor (Homo sapiens, UniProt P14416); assay: [3H]-raclopride radioligand binding assay, D2
[10] = biological target: T3, human serum albumin (HSA) (Homo sapiens, UniProt P02768); assay: Binding to HSA, Chiralpak HSA column
Procedure, shortened: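 HSA binding (%HSA) was estimated by HPLC on a Chiralpak HSA column at 30 °C and 0.9 mL/min. The gradient ran 0–20% isopropanol in 50 mM ammonium acetate over 15 min, then held 12 min. UV detection covered 190–300 nm, and values were calibrated against reference compounds, in triplicate.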

[11] = Metabolic stability in mouse liver microsomes (MLMs); type: in vitro ADME; conditions: mouse, mouse liver microsomes, 120 min
Experimental: The metabolic stability of PR 68, PR 73, and PR 76 were determined in mouse liver microsomes (MLMs).
The metabolic stability of PR 68 was estimated with mouse liver microsomes (MLMs) (Sigma-Aldrich, St. Louis, MO, USA). […] Cold methanol was then added to the reaction mixture to quench the reaction. The precipitated MLMs were centrifuged, and the supernatant was analyzed by LC/MS with a Waters ACQUITY™ TQD system with a TQ detector (Waters, Milford, USA).
(1 picture or pasted object on this page, not shown here)

5-HT5A receptor = 5-HT5A receptor (Homo sapiens, UniProt P47898); assay: [3H]-LSD radioligand binding assay, 5-HT5A; conditions: read-out: 5-HT5A Ki; [3H]-LSD, HEK293
[12] = parameters: method as in PMID 36183548; conditions: MLMs, as previously reported ref 30; cited from earlier work
[13] = biological target: T3, human serum albumin (HSA); parameters: purchased Daicel Chiral Technologies; method as in PMID 28215942; conditions: cited from earlier work
HSA and AGP (24:1) = assay: in vitro; conditions: human, plasma

Sequence of 5-HT7b receptor (P34969 1-432 limits assumed): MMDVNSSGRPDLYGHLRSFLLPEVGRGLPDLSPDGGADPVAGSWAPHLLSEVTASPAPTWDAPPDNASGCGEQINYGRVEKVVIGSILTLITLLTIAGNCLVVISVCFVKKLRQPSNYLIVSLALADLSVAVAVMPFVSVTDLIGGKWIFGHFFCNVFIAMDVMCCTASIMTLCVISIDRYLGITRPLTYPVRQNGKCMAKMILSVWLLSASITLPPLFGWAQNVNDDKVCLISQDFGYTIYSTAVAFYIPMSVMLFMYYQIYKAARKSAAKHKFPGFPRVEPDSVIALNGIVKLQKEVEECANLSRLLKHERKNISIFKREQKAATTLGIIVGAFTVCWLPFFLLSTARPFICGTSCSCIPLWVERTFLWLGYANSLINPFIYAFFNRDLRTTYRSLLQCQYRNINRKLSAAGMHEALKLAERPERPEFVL
Sequence of D2L receptor (P14416 whole entry): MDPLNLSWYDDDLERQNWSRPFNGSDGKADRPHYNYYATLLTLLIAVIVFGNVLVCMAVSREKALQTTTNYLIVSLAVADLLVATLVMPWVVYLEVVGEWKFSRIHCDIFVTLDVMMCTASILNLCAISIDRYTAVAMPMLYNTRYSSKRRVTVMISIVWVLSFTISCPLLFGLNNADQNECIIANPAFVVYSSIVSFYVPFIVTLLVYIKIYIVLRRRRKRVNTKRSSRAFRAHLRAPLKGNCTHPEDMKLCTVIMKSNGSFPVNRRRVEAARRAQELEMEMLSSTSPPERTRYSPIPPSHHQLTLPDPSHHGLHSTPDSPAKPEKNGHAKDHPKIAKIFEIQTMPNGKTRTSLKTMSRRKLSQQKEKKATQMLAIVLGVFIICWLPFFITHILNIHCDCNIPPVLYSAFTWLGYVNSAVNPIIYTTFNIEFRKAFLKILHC
T3 sequence (P02768 25-609): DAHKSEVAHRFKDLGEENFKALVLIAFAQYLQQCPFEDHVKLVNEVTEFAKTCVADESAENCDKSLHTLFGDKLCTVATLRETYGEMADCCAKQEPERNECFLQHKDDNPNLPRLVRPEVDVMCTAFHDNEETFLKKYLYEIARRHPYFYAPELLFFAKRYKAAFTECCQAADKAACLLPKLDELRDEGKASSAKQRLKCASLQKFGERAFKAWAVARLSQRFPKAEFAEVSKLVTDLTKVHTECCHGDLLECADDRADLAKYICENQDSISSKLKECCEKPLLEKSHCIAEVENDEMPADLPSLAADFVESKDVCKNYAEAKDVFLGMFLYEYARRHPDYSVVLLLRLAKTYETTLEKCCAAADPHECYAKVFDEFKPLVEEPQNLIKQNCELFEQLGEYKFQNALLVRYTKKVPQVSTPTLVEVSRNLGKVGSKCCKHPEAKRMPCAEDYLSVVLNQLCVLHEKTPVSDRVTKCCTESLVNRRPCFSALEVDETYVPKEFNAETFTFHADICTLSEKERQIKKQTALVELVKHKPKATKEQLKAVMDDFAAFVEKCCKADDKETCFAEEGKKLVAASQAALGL
T1 sequence (P50406 whole entry): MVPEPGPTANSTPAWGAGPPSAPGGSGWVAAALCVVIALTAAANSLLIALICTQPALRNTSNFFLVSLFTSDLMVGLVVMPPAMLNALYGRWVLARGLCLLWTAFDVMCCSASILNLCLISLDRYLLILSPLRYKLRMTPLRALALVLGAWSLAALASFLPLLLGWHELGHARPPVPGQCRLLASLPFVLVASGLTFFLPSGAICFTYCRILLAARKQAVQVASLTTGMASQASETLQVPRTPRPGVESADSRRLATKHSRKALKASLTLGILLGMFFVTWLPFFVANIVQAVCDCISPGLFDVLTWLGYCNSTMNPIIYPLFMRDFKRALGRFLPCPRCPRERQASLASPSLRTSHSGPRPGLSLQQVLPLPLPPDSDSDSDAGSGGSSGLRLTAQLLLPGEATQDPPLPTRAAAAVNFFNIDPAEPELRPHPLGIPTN
Sequence of 5-HT5A receptor (P47898 whole entry): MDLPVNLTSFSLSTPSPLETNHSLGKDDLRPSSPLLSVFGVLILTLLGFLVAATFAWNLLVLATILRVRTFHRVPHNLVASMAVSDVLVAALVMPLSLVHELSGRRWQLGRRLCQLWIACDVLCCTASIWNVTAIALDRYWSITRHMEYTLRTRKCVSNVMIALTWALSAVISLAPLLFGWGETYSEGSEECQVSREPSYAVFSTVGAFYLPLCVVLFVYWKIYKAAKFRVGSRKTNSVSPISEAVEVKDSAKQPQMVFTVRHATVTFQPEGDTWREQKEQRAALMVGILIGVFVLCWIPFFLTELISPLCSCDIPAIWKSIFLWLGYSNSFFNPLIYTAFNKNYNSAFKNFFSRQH

Row | Compound | IC50 (U-251 glioblastoma cells; Homo sapiens, U-251, 72 h) [µM] | Ki (5-HT1A receptor) [µM] | IC50 ([2]; Homo sapiens, ASPC1, 72 h) [µM] | IC50 ([3]; Homo sapiens, LN-229, 72 h) [µM] | IC50 ([4]; Homo sapiens, 1321-N1, 72 h) [µM] | IC50 (U87MG glioblastoma cells; Homo sapiens, U-87 MG) [µM] | melting point [°C] | Ki (human 5-HT6 [5]) [µM] | IC50 ([6]; Homo sapiens, MCF7, 72 h) [µM] | Ki (5-HT7b receptor) [µM] | CHI IAM [8] | CHI C18 pH 2.6 [9] | CHI C18 pH 7.4 [9] | CHI C18 pH 10.5 [9] | Ki (D2L receptor) [µM] | other results
1 | O=S(=O)(NC1=Nc2c(Cl)cccc2CN1)c1cccc2ccccc12 [PR 49, N -(8-chloro-3,4-dihydroquinazolin-2-yl)naphthalene-1-sulfonamide] | > 25 | 207 | > 25 | > 25 | > 25 | > 25 | 250 to 256 | 0.077 ± 0.018 | > 25 | 142 | – | – | – | – | – | Kb (human 5-HT6 [1]): 0.081 µM; IC50 (HEK293): 38.8 µM
2 | CN(C)C/C=C/C(=O)Nc1cc2c(Nc3ccc(F)c(Cl)c3)ncnc2cc1O[C@H]1CCOC1 [Afatinib, reference compound] | 27 | – | – | 9.8 | – | – | – | – | 25.9 | – | – | – | – | – | – | IC50 [7]: 7.5 µM
3 | CC1OC(NS(=O)(=O)c2cccc3ccccc23)=Nc2ccccc21 (stereo not drawn) [PR 77, N -(4-methyl-4H-3,1-benzoxazin-2-yl)naphthalene-1-sulfonamide] | > 25 | 7.54 | > 25 | > 25 | > 25 | > 25 | 229 to 233 | 0.373 ± 0.092 | > 25 | 56.7 | 40.8 | 102.5 | 99.9 | 103.2 | 222 | %HSA ([10]; Chiralpak HSA column): 95.9%; logKHSA ([10]; Chiralpak HSA column): 1.3
4 | CC1c2ccccc2N=C(NS(=O)(=O)c2cccc3ccccc23)N1C (stereo not drawn) [PR 76, N -(3,4-dimethyl-3,4-dihydroquinazolin-2-yl)naphthalene-1-sulfonamide] | > 25 | 11 | > 25 | > 25 | > 25 | > 25 | 215 to 217 | 0.103 ± 0.025 | > 25 | 35.6 | – | – | – | – | 174 | EC50 (human 5-HT6 [1]; agonist mode, cAMP): 0.199 µM; function at 5-HT6R (human 5-HT6 [1]; cAMP): agonist; remaining at 2 h, 50 µM [11]: 87.4%
5 | N -[6-(4-methylpiperazin-1-yl)-3,4-dihydroquinazolin-2-yl]naphthalene-1-sulfonamide [PR 66] | – | – | – | – | – | – | – | 11.6 ± 2.66 | – | – | 36.0 | 81.4 | 79.6 | 80.7 | – | IC50 (U-251 glioblastoma cells; 72 h, MTS): > 25 µM; IC50 ([2]; 72 h, MTS): > 25 µM; IC50 ([3]; 72 h, MTS): > 25 µM; IC50 ([4]; 72 h, MTS): > 25 µM; IC50 (U87MG glioblastoma cells; MTS): > 25 µM; Ki (5-HT5A receptor): 3.44 µM; IC50 ([6]; 72 h, MTS): > 25 µM; %HSA [10]: 92.7%; logKHSA [10]: 1.0
6 | O=S(=O)(NC1=NCc2ccccc2N1)c1cccc2ccccc12 [PR 40, N -(3,4-dihydroquinazolin-2-yl)naphthalene-1-sulfonamide] | – | – | – | – | – | – | – | 0.651 ± 0.135 | – | – | – | – | – | – | – | metabolized [12]: 97%
7 | CC1NC(NS(=O)(=O)c2cccc3ccccc23)=Nc2c(Cl)cccc21 (stereo not drawn) [PR 71, N -(8-chloro-4-methyl-3,4-dihydroquinazolin-2-yl)naphthalene-1-sulfonamide] | > 25 | 134 | > 25 | > 25 | > 25 | > 25 | 215 to 219 | 0.061 ± 0.014 | > 25 | 37.5 | 44.8 | 102.2 | 100.7 | 103.8 | 142 | Kb (human 5-HT6 [1]): 0.035 µM; %HSA ([10]; Chiralpak HSA column): 97.5%; logKHSA ([10]; Chiralpak HSA column): 1.4
8 | O=c1[nH]c2ccccc2n1C1CCN(CCCC(c2ccc(F)cc2)c2ccc(F)cc2)CC1 [pimozide] | – | – | – | – | – | – | – | – | – | – | – | – | – | – | – | affinity to HSA [13]: 98.6%
9 | CN(C)c1ccc2c(c1)CNC(NS(=O)(=O)c1cccc3ccccc13)=N2 [PR 64, N -[6-(dimethylamino)-3,4-dihydroquinazolin-2-yl]naphthalene-1-sulfonamide] | 7.7 ± 0.8 | – | > 25 | > 25 | > 25 | > 25 | 216 to 222 | 0.851 ± 0.192 | 9.7 ± 1.7 | – | – | – | – | – | – | IC50 [7]: 15.1 ± 2.1 µM; selectivity index ([7]; activity on NHA compared to U-251 cells): 1.96
10 | CC(=O)CC(c1ccccc1)c1c(O)c2ccccc2oc1=O (stereo not drawn) [warfarin] | – | – | – | – | – | – | – | – | – | – | – | – | – | – | – | fraction unbound at 12 min, 20 µM (HSA and AGP (24:1)): 0.015
